This passage reports T/C results from PubChem BioAssay AID248 (DTP/NCI, 2004).

In this assay the test system is L1210 leukemia ip in BDF1 mice, survival T/C. The assay is described as follows: NCI In Vivo Anticancer Drug Screen. Data for tumor model L1210 Leukemia (intraperitoneal) in B6D2F1 (BDF1) mice. The note with it: endpoint: mean survival time, higher = longer survival. The gist of the method:
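Tumor cells were implanted, animals were treated, and survival was followed. The result divides the treated measurement by the vehicle-control measurement.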

Setting [1] is: dose: 200.0 mg/kg/injection, schedule: Q04DX003 (ip), vehicle: Klucel (hydroxypropylcellulose) (HPC).
Where [2] appears, read: dose: 400.0 mg/kg/injection, schedule: Q04DX003 (ip), vehicle: Klucel (hydroxypropylcellulose) (HPC).
Setting [3] is: dose: 100.0 mg/kg/injection, schedule: Q01DX009 (ip), vehicle: saline with Tween-80.
Where [4] appears, read: dose: 100.0 mg/kg/injection, schedule: Q04DX003 (ip), vehicle: saline with Tween-80.
[5] abbreviates: dose: 200.0 mg/kg/injection, schedule: Q01DX009 (ip), vehicle: saline with Tween-80.
The mark [6] stands for this setting: dose: 200.0 mg/kg/injection, schedule: Q04DX003 (ip), vehicle: saline with Tween-80.
[7] abbreviates: dose: 400.0 mg/kg/injection, schedule: Q04DX003 (ip), vehicle: saline with Tween-80.
The mark [8] stands for this setting: dose: 100.0 mg/kg/injection, schedule: Q01DX001 (ip), vehicle: saline.
[9] abbreviates: dose: 200.0 mg/kg/injection, schedule: Q01DX001 (ip), vehicle: saline.
Setting [10] is: dose: 400.0 mg/kg/injection, schedule: Q01DX001 (ip), vehicle: saline.
Setting [11] is: dose: 50.0 mg/kg/injection, schedule: Q01DX001 (ip), vehicle: saline.
The mark [12] stands for this setting: dose: 100.0 mg/kg/injection, schedule: Q01DX009 (ip), vehicle: Klucel (hydroxypropylcellulose) (HPC).
The mark [13] stands for this setting: dose: 100.0 mg/kg/injection, schedule: Q04DX003 (ip), vehicle: Klucel (hydroxypropylcellulose) (HPC).
The mark [14] stands for this setting: dose: 200.0 mg/kg/injection, schedule: Q01DX009 (ip), vehicle: Klucel (hydroxypropylcellulose) (HPC).
Setting [15] is: dose: 100.0 mg/kg/injection, schedule: Q01DX001 (ip), vehicle: carboxymethylcellulose (CMC).
Setting [16] is: dose: 200.0 mg/kg/injection, schedule: Q01DX001 (ip), vehicle: carboxymethylcellulose (CMC).
The mark [17] stands for this setting: dose: 400.0 mg/kg/injection, schedule: Q01DX001 (ip), vehicle: carboxymethylcellulose (CMC).

Toxic doses and inconclusive results are not listed.

`Cc1nc2c(nc1C)C(=O)C1C3c4ccccc4C(c4ccccc43)C1C2=O` (stereo not given): the T/C was 93 % of control under setting [1] and 93 % of control under setting [2].
Take `CC(CC=O)CCCC(C)(C)O` (stereo not given): the T/C by setting is: (dose: 100.0 mg/kg/injection, schedule: Q01DX009 (ip), vehicle: saline) 102 % of control; (dose: 200.0 mg/kg/injection, schedule: Q01DX009 (ip), vehicle: saline) 102 % of control; (dose: 400.0 mg/kg/injection, schedule: Q01DX009 (ip), vehicle: saline) 93 % of control.
`O=C1NNC(=O)C2C3CCC(C3)C12` (stereo not given): the T/C (dose: 50.0 mg/kg/injection, schedule: Q01DX009 (ip), vehicle: saline) was 98 % of control.
Regarding `CC(=O)C(C)(CCC(=O)NC(C)(C)C)CCC(=O)NC(C)(C)C`, the T/C by setting is: under setting [3], 94 % of control; under setting [4], 95 % of control; under setting [5], 100 % of control; under setting [6], 95 % of control; (dose: 400.0 mg/kg/injection, schedule: Q01DX009 (ip), vehicle: saline with Tween-80) 93 % of control; under setting [7], 93 % of control.
For `c1ccc(-c2nc3nncn3nc2-c2ccccc2)cc1`, the T/C was 94 % of control under setting [8], 99 % of control under setting [9] and 98 % of control under setting [10].
Turning to `CC(=O)OCC1C(OC(C)=O)C(OC(C)=O)C(OC(C)=O)N1C(C)=O` (stereo not given), the T/C is, setting by setting: under setting [11], 98 % of control; under setting [8], 95 % of control; under setting [9], 98 % of control; under setting [10], 98 % of control.
In the case of `CC(=O)Nc1ccc(Cc2ccc3[nH]c(C)cc(=O)c3c2)cc1`, the T/C is, setting by setting: under setting [8], 109 % of control; under setting [9], 98 % of control; under setting [10], 93 % of control.
Regarding `O=C(OCc1ccccc1)C(=O)OCc1ccccc1`, the T/C under setting [12] was 90 % of control; the T/C under setting [13] is 95 % of control; the T/C under setting [14] was 103 % of control; the T/C under setting [1] is 100 % of control; the T/C under setting [2] was 100 % of control.
Regarding `CCOC(=O)/C=C(/N)c1c(C)[nH]c2ccccc12`, the T/C is, setting by setting: under setting [8], 102 % of control; under setting [9], 113 % of control; under setting [10], 87 % of control.
With `Cc1ccccc1C1SCCCS1`, the T/C by setting is: under setting [4], 101 % of control; under setting [6], 96 % of control; under setting [7], 107 % of control.
Turning to `Cc1ccc(Nc2nc(N)nc(N)c2N=O)cc1C`, the T/C is, setting by setting: (dose: 100.0 mg/kg/injection, schedule: Q01DX Z (ip), vehicle: methylcellulose (MC)) 116 % of control; (dose: 200.0 mg/kg/injection, schedule: Q01DX001 (ip), vehicle: Klucel (hydroxypropylcellulose) (HPC)) 106 % of control; (dose: 200.0 mg/kg/injection, schedule: Q01DX Z (ip), vehicle: methylcellulose (MC)) 98 % of control.
As for `Cc1nnc(NS(=O)(=O)c2ccc(N=Nc3cc(N=Nc4ccccc4)c(N)nc3N)cc2)s1`, the T/C under setting [15] is 87 % of control, the T/C under setting [16] was 89 % of control and the T/C under setting [17] was 97 % of control.
Turning to `O=S(=O)(OCC(F)(F)F)c1ccccc1`, the T/C reads like this: under setting [12], 103 % of control; under setting [13], 97 % of control; under setting [14], 101 % of control; under setting [1], 102 % of control; under setting [2], 103 % of control.
For `CC(=O)N(N=Nc1ccc(Cl)cc1)c1ccc(Cl)cc1`, the T/C is, setting by setting: (dose: 50.0 mg/kg/injection, schedule: Q01DX009 (ip), vehicle: saline with Tween-80) 98 % of control; under setting [3], 98 % of control; under setting [5], 98 % of control.
For the compound `c1ccc([P+](C[P+](c2ccccc2)(c2ccccc2)c2ccccc2)(c2ccccc2)c2ccccc2)cc1`, the T/C (dose: 0.19 mg/kg/injection, schedule: Q01DX009 (ip), vehicle: Klucel (hydroxypropylcellulose) (HPC)) was 98 % of control; the T/C (dose: 0.39 mg/kg/injection, schedule: Q01DX009 (ip), vehicle: Klucel (hydroxypropylcellulose) (HPC)) was 175 % of control; the T/C (dose: 0.78 mg/kg/injection, schedule: Q01DX009 (ip), vehicle: Klucel (hydroxypropylcellulose) (HPC)) was 102 % of control; the T/C (dose: 1.56 mg/kg/injection, schedule: Q01DX009 (ip), vehicle: Klucel (hydroxypropylcellulose) (HPC)) was 97 % of control; the T/C (dose: 1.56 mg/kg/injection, schedule: Q04DX003 (ip), vehicle: Klucel (hydroxypropylcellulose) (HPC)) was 93 % of control; the T/C (dose: 3.12 mg/kg/injection, schedule: Q01DX009 (ip), vehicle: Klucel (hydroxypropylcellulose) (HPC)) was 97 % of control. For the same compound, the T/C is, setting by setting: (dose: 3.12 mg/kg/injection, schedule: Q04DX003 (ip), vehicle: Klucel (hydroxypropylcellulose) (HPC)) 92 % of control; (dose: 6.25 mg/kg/injection, schedule: Q04DX003 (ip), vehicle: Klucel (hydroxypropylcellulose) (HPC)) 90 % of control.
For `NSc1nc2ccccc2s1`, the T/C is, setting by setting: under setting [3], 95 % of control; (dose: 100.0 mg/kg/injection, schedule: Q04DX003 (ip), vehicle: saline sonified) 105 % of control; under setting [5], 93 % of control; (dose: 200.0 mg/kg/injection, schedule: Q04DX003 (ip), vehicle: saline sonified) 96 % of control; (dose: 400.0 mg/kg/injection, schedule: Q04DX003 (ip), vehicle: saline sonified) 107 % of control.
As for `O=C(O)CCSc1nc[nH]c1[N+](=O)[O-]`, the T/C (dose: 100.0 mg/kg/injection, schedule: Q01DX001 (ip), vehicle: saline with Tween-80) was 102 % of control; the T/C (dose: 200.0 mg/kg/injection, schedule: Q01DX001 (ip), vehicle: saline with Tween-80) was 96 % of control; the T/C (dose: 400.0 mg/kg/injection, schedule: Q01DX001 (ip), vehicle: saline with Tween-80) was 96 % of control.
With `CN1C(=O)N(C)P1(Cl)(Cl)Cl`, the T/C was 103 % of control (dose: 100.0 mg/kg/injection, schedule: Q04DX002 (ip), vehicle: saline with Tween-80); 95 % of control (dose: 200.0 mg/kg/injection, schedule: Q04DX002 (ip), vehicle: saline with Tween-80); 92 % of control (dose: 400.0 mg/kg/injection, schedule: Q04DX002 (ip), vehicle: saline with Tween-80).
Consider `COc1nn(O)cc(C)c1=NC(C)=O`, for which the T/C was 102 % of control (dose: 12.5 mg/kg/injection, schedule: Q04DX002 (ip), vehicle: saline); 98 % of control (dose: 25.0 mg/kg/injection, schedule: Q04DX002 (ip), vehicle: saline); 105 % of control (dose: 50.0 mg/kg/injection, schedule: Q04DX002 (ip), vehicle: saline).
With `CC(Cl)CN(Cc1cc(O)c(CN(CC(C)Cl)CC(C)Cl)cc1O)CC(C)Cl` (stereo not given), the T/C (dose: 50.0 mg/kg/injection, schedule: Q01DX001 (ip), vehicle: carboxymethylcellulose (CMC)) was 105 % of control; the T/C under setting [15] is 94 % of control; the T/C under setting [16] was 95 % of control; the T/C under setting [17] is 90 % of control.
With `O=[N+]([O-])c1cccc([I+]c2ccccc2)c1`, the T/C reads like this: under setting [11], 91 % of control; under setting [8], 95 % of control; under setting [9], 101 % of control.
As for `CCOC(=O)C/C(C)=N/N=C(\CCOC)COC`, the T/C under setting [15] was 87 % of control, the T/C under setting [16] was 103 % of control and the T/C under setting [17] is 103 % of control.
In the case of `O=[N+]([O-])c1cccc(-c2nn[nH]n2)c1`, the T/C runs as follows: (dose: 100.0 mg/kg/injection, schedule: Q04DX003 (ip), vehicle: saline) 94 % of control; (dose: 200.0 mg/kg/injection, schedule: Q04DX003 (ip), vehicle: saline) 94 % of control; (dose: 400.0 mg/kg/injection, schedule: Q04DX003 (ip), vehicle: saline) 96 % of control.
Turning to `OCCOC1CCCC=C1Cl` (stereo not given), the T/C runs as follows: (dose: 100.0 mg/kg/injection, schedule: Q01DX001 (ip), vehicle: acetone) 95 % of control; (dose: 200.0 mg/kg/injection, schedule: Q01DX001 (ip), vehicle: acetone) 98 % of control; (dose: 400.0 mg/kg/injection, schedule: Q01DX001 (ip), vehicle: acetone) 91 % of control.
